Reference: US11530197B2, “Analogs for the treatment of disease” (Insilico Medicine IP Limited, priority 2021, dated 2022)
pIC50: −log10 of the molar value.

What was measured:
[1] = test system: Collagen I (COL1A1) in LX-2 cells; experiment: Collagen and Alpha-SMA in LX-2 (Western blot after TGF-β stimulation); type: cell-based; settings: Homo sapiens, 4 ng/ml TGF-β for 48 hours, Collagen I normalized to GAPDH;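 also: cells serum-starved in 0.4% FBS before treatment, lysates analysed by Western blot, DMSO-only wells as blank and TGF-β alone as maximal induction control, three independent experiments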
Description: 3 ml of 0.25% Trypsin-EDTA solution was then added and cells were incubated at 37° C. for 5 min for each T150-flask. 7 ml of culture medium was added to stop trypsinization. The cells were centrifuged at 300×g for 5 min. Supernatant medium was discarded and cells were re-suspended with fresh culture medium. The cells were counted with Cell viability analyzer. 5.0E+05 cells/well were seeded into 6-well plate containing 2.0 mL of culture medium. The cells were cultured overnight at 37° C. The next day, the complete medium was replaced with medium with 0.4% FBS for starvation. […] In parallel, medium containing only DMSO and TGF-β was used as blank control and positive control, respectively. TGF-β induction was used as maximum induction positive control. The culture medium was discarded at the end of induction. Cells were washed once using ice-cold DPBS. RIPA buffer was added to lyse the cells for 20 min. The cells were then scraped off the culture plate, collected in a tube and centrifuged. The supernatant was stored at −80° C. The total amount of protein in the lysate was determined using BCA Protein Assay kit. The cell treatment of fibrosis assay was performed in three independent experiments for each compound.
All the lysate samples were adjusted to the same protein concentration with RIPA buffer after BCA assay. […] The denatured samples were used for electrophoresis. Western blot was performed according to the standard protocols. The same volume of protein was loaded onto 4-12% Bis-Tris gel. Duplicate lysates of samples were loaded onto two gels. The gels were run for 0.5 h at 80 V and 120 V for another 1 h. When the electrophoresis was completed, the gels containing target protein Collagen I (COL1A1) were transferred onto NC membrane using Trans-Blot Electrophoretic Transfer Cell for 90 min at 100 V. The iBlot™ 2 Gel Transfer Device was used to transfer α-SMA and GAPDH at 20 V for 7 min. All the membranes were blocked in TBST buffer with 5% nonfat dry milk in at RT for 1 h and then incubated with primary antibody anti-COL1A1 and anti-α-SMA in TBST buffer containing 5% BSA at 4° C. overnight. For GAPDH detection, the membrane with α-SMA immunoblots were stripped with Restore™ Western Blot Stripping Buffer after detection. And the membranes were re-blocked and then re-probed with primary antibody anti-GAPDH antibody at room temperature (RT) for 2 h. After incubation with primary antibodies, membranes were washed with TBST, then incubated with the secondary antibody at RT for 1 h. Blots were visualized using the instrument Image Quant LAS-4000. The chemiluminescent signals derived from ECL Western blotting reagents were captured. The bands integrated intensity from 16-bit blot images was used for quantitation with the software (1D component of ImageQuant TL). The quantification raw data of the two duplicated gels was obtained from ImageQuant TL. Collagen I and α-SMA proteins expression level was normalized to GAPDH for each gel. The average normalization data of the two duplicated gels was calculated and applied to calculate IC50 using an equation for a sigmoidal dose response (variable slope) of GraphPad™ Prism software. The equation is Y=Bottom+(Top-Bottom)/(1+10^((Log IC50−X)*Hillslope). Note: X is the logarithm of compound concentration, Y is the average normalization data

[2] = Metabolic stability in human liver microsomes; type: in vitro ADME; settings: LM Clint; 1 μM test compound, 0.5 mg protein/mL microsome, 37° C., up to 60 min;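 also: NADPH-supplemented human liver microsomes sampled at 0, 5, 10, 20, 30 and 60 min, parent compound quantified by LC-MS/MS, intrinsic clearance from first-order decay, no-cofactor incubation as control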
Description: Test Compound an Control Working Solution Preparation: Working solution: 5 μL of compound and control stock solution (10 mM in dimethyl sulfoxide (DMSO)) were diluted with 495 µL of acetonitrile (ACN) (intermediate solution concentration: 100 μM, 99% ACN).
Preparation Procedure: The appropriate amount of NADPH powder was weighed and diluted into a 10 mM MgCl2 solution (working solution concentration: 10 unit/mL; final concentration in reaction system: 1 unit/mL).
Preparation Procedure: The appropriate concentrations of microsome working solutions were prepared in 100 mM potassium phosphate buffer.
Stop Solution Preparation: Cold (4° C.) acetonitrile (ACN) containing 200 ng/mL tolbutamide and 200 ng/mL labetalol as internal standards (IS) was used as the stop solution.
Dilute liver microsomes to 0.56 mg/mL in 100 mM phosphate buffer.
Transfer 445 μL microsome working solutions (0.56 mg/mL) into pre-warmed ‘Incubation’ plates T60 and NCF60, Then pre-incubate ‘Incubation’ plates T60 and NCF60 for 10 min at 37° C. with constant shaking. Transfer 54 μL liver microsomes to blank plate, then add 6 μL NAPDH cofactor to blank plate, and then add 180 μL quenching solution to blank plate.
2.5.4 Add 5 μL compound working solution (100 μM) into ‘incubation’ plates (T60 and NCF60) containing microsomes and mix 3 times thoroughly.
For the NCF60 plate, add 50 μL of buffer and mix 3 times thoroughly. Start timing; plate will be incubated at 37° C. for 60 min while shaking.
For the T60 plate, mix 3 times thoroughly, and immediately remove 54 μL mixture for the 0-min time point to ‘Quenching’ plate. Then add 44 μL NAPDH cofactor to incubation plate (T60). Start timing; plate will be incubated at 37° C. for 60 min while shaking.
At 5, 10, 20, 30, and 60 min, add 180 μL quenching solution to ‘Quenching’ plates, mix once, and serially transfer 60 μL sample from T60 plate per time point to ‘Quenching’ plates.
For NCF60: mix once, and transfer 60 μL sample from the NCF60 incubation to ‘Quenching’ plate containing quenching solution at the 60-min time point.
All sampling plates are shaken for 10 min, then centrifuged at 4000 rpm for 20 minutes at 4° C.
Transfer 80 μL supernatant into 240 μL HPLC water, and mix by plate shaker for 10 min.
Each bioanalysis plate was sealed and shaken for 10 minutes prior to LC-MS/MS analysis.
The equation of first order kinetics was used to calculate T½ and Intrinsic clearance (CLint mic) in (L/min/mg).

MAP4K4 (h) = MAP4K4 (h) (Homo sapiens (Human), UniProt O95819); experiment: MAP4K4 Human STE Kinase Enzymatic Radiometric Assay; type: biochemical; settings: ATP 200 μM; 40 min at room temperature;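 also: kinase activity remaining relative to the DMSO control, IC50 derived from sigmoidal variable-slope curve fits, no preincubation of compound with enzyme before ATP start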
Description: (§1) The reaction is initiated by the addition of the Mg/ATP mix. After incubation for 40 minutes at room temperature, the reaction is stopped by the addition of phosphoric acid to a concentration of 0.5%.
INCUBATION: 40 min at Room temperature
COMPOUND DILUTION SCHEME: All compounds supplied were prepared to a working stock of 50× final assay concentration in 100% DMSO. Where appropriate, more concentrated stocks were diluted manually to 50× using 100% DMSO. Compounds supplied as powders were reconstituted to a 10 mM stock in 100% DMSO before further dilution to 50×.
ASSAY PROCEDURE: The required volume of the 50× stock of test compound was added to the assay before a reaction mix containing the enzyme and substrate was added. The reaction was initiated by the addition of ATP at the selected concentration. There was no pre-incubation of the compound with the enzyme/substrate mix prior to ATP addition.
Results are expressed as kinase activity remaining, as a percentage of the DMSO control. This is calculated using the following formula: Mean of Sample Counts−Mean of Blank Counts/Mean of Control Counts
(§2) For IC50 determinations, data are analyzed using XLFit version 5.3 (ID Business Solutions). Sigmoidal dose-response (variable slope) curves are fit based on the mean result for each test concentration using non-linear regression analysis. Where the top and/or bottom of the curve fall >10% out with 100 and 0, respectively, either or both of these limits may be constrained at 100 and 0, provided that the QC criterion on R2 is met.

TNIK(h) = TNIK(h) (Homo sapiens (Human), UniProt Q9UKE5); experiment: TNIK Human STE Kinase Enzymatic Radiometric Assay; type: biochemical; settings: ATP 70 μM; 40 min at room temperature; read-out: TNIK (IC50);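 also: remaining kinase activity relative to DMSO control, compound added without preincubation, reaction started with ATP, IC50 from variable-slope sigmoidal dose-response fit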
Chain of TNIK(h) (Q9UKE5 whole entry): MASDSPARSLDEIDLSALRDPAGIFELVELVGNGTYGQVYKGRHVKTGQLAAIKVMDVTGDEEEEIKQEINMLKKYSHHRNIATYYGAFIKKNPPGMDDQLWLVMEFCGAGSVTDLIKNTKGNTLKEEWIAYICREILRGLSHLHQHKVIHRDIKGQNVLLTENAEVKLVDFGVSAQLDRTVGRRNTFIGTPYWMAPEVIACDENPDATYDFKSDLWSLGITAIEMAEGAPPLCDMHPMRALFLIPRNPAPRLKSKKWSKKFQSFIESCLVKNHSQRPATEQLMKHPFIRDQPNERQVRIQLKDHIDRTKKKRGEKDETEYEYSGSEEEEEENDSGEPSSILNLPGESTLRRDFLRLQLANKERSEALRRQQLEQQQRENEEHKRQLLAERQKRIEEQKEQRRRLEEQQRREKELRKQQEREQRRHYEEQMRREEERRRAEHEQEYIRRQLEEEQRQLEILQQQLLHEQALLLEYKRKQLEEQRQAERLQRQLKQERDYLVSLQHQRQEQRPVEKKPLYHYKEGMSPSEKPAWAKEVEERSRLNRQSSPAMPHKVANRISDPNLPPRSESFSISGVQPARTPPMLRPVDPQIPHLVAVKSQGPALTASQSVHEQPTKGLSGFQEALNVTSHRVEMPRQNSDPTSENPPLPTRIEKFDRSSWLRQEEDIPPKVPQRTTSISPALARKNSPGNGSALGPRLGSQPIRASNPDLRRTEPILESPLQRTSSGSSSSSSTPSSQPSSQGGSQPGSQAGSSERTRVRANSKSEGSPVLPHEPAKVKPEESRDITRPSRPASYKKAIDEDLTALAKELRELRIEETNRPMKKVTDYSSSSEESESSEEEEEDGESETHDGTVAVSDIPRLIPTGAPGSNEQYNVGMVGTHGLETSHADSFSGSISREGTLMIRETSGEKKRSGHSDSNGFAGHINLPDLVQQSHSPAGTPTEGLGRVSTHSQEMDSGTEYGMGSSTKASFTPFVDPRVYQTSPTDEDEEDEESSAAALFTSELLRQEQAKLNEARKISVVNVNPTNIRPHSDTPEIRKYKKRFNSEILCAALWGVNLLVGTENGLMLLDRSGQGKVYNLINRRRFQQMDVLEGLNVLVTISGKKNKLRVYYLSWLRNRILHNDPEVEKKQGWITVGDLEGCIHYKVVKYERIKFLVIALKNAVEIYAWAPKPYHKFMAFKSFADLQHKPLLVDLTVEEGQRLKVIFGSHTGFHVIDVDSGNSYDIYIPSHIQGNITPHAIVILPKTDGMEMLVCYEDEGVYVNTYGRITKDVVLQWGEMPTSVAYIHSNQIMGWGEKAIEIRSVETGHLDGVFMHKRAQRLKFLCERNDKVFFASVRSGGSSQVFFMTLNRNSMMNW
Description: as §1
INCUBATION: 40 min at Room temperature
COMPOUND DILUTION SCHEME: All compounds supplied were prepared to a working stock of 50× final assay concentration in 100% DMSO. Where appropriate, more concentrated stocks were diluted manually to 50× using 100% DMSO. Compounds supplied as powders were reconstituted to a 10 mM stock in 100% DMSO before further dilution to 50×. ASSAY PROCEDURE: The required volume of the 50× stock of test compound was added to the assay before a reaction mix containing the enzyme and substrate was added. The reaction was initiated by the addition of ATP at the selected concentration. There was no pre-incubation of the compound with the enzyme/substrate mix prior to ATP addition. […] Results are expressed as kinase activity remaining, as a percentage of the DMSO control. This is calculated using the following formula:
as §2

Chain of MAP4K4 (h) (O95819 whole entry): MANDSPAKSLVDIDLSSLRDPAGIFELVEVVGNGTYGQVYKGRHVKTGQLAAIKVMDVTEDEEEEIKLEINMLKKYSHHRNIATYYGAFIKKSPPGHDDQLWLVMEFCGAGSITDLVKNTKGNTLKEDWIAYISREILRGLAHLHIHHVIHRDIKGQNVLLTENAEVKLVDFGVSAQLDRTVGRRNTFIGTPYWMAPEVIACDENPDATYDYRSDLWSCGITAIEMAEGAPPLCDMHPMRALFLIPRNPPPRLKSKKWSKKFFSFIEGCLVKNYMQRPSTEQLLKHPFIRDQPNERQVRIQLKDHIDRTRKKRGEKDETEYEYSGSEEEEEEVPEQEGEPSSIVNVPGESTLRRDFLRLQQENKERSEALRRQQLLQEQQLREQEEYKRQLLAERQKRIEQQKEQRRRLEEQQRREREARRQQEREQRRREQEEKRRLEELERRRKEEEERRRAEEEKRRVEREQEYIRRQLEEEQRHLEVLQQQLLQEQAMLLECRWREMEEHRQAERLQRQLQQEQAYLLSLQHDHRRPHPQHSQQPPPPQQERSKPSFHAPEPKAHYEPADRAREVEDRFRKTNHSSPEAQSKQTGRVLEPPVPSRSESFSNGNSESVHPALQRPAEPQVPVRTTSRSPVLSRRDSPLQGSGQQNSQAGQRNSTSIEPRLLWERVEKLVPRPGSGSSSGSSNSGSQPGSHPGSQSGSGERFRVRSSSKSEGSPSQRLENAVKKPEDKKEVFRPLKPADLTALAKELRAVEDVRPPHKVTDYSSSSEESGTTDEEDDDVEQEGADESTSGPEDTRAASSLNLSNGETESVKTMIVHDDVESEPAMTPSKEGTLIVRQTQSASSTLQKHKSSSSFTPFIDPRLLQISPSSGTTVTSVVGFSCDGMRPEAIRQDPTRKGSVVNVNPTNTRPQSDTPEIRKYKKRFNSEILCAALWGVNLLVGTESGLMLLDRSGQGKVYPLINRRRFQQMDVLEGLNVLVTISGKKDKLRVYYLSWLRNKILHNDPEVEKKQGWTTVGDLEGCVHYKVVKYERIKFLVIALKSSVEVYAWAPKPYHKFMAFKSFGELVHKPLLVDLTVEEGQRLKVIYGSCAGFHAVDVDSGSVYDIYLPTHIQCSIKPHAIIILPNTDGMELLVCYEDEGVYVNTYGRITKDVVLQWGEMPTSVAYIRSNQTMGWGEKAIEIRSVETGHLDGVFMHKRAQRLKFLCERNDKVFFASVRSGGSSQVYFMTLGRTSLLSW

Row | SMILES | pIC50 [1] | Human Liver Microsome (μM/min/mg) [2] | pIC50 (MAP4K4 (h)) | pIC50 (TNIK(h))
1 | O=C(Nc1ccccc1F)c1occc1-c1c(-c2cccnc2)ncn1C1CCCC1 [Compound 1] | < 9.00 |  |  | 
2 | O=C(Nc1ccccc1F)c1occc1-c1c(-c2ccc(F)cc2)ncn1CC1CCOC1 (stereo not shown) [Compound 4] | < 9.00 |  |  | 
3 | O=C(NC1CCOCC1)c1ccc(-c2c(-c3ccc(F)cc3)ncn2C2CCCC2)o1 [Compound 39] | < 9.00 |  |  | 
4 | CC(C)n1cnc(-c2ccc(F)cc2)c1-c1nc(C(=O)Nc2ccc(N3CCN(S(N)(=O)=O)CC3)cc2)c[nH]1 [Compound 97, 5′-(4-fluorophenyl)-3′-isopropyl-N-(4-(4-sulfamoylpiperazin-1-yl)phenyl)-1H,3′H-[2,4′-biimidazole]-4-carboxamide] |  | + (>100 μM/min/mg as +) | 6.92 to 7.92 | 6.92 to 7.92
5 | CC(C)n1cnc(-c2ccc(F)cc2)c1-c1nc(C(=O)Nc2ccc(N3CCN(C(N)=O)CC3)cc2)c[nH]1 [Compound 99, N-(4-(4-carbamoylpiperazin-1-yl)phenyl)-5′-(4-fluorophenyl)-3′-isopropyl-1H,3′H-[2,4′-biimidazole]-4-carboxamide] |  | ++ (10-100 μM/min/mg as ++) | < 6.92 | < 6.92
6 | CC(C)n1cnc(-c2ccc(F)cc2)c1-c1nc(C(=O)Nc2ccc(CCC(=O)O)cc2)c[nH]1 [Compound 102, 3-(4-(5′-(4-fluorophenyl)-3′-isopropyl-1H,3′H-[2,4′-biimidazole]-4-carboxamido)phenyl)propanoic acid] |  | +++ (1-10 μM/min/mg as +++) | < 6.92 | 6.92 to 7.92
7 | CC(C)n1cnc(-c2ccc(F)cc2)c1-c1nc(C(=O)Nc2ccc(C(=O)O)cc2)c[nH]1 [Compound 113, 4-(5′-(4-fluorophenyl)-3′-isopropyl-1H,3′H-[2,4′-biimidazole]-4-carboxamido)benzoic acid] |  | +++ (1-10 μM/min/mg as +++) | < 6.92 | 7.92 to 9.00
8 | CN1CCN(c2ccc(NC(=O)c3c[nH]c(-c4c(-c5ccc(F)cc5)ncn4C)n3)cc2)CC1 [Compound 119, 5′-(4-fluorophenyl)-3′-methyl-N-(4-(4-methylpiperazin-1-yl)phenyl)-1H,3′H-[2,4′-biimidazole]-4-carboxamide] |  | ++ (10-100 μM/min/mg as ++) | < 6.92 | < 6.92
9 | CC(C)n1cnc(-c2ccc(F)cc2)c1-c1nc(C(=O)Nc2ccc(CCCCC(=O)O)cc2)c[nH]1 [Compound 132, 5-(4-(5′-(4-fluorophenyl)-3′-isopropyl-1H,3′H-[2,4′-biimidazole]-4-carboxamido)phenyl)pentanoic acid] |  | +++ (1-10 μM/min/mg as +++) | 6.92 to 7.92 | 6.92 to 7.92
10 | CC(C)n1cnc(-c2ccc(C(F)(F)F)cc2)c1-c1nc(C(=O)Nc2ccc(CCC(=O)O)cc2)c[nH]1 [Compound 133, 3-(4-(3′-isopropyl-5′-(4-(trifluoromethyl)phenyl)-1H,3′H-[2,4′-biimidazole]-4-carboxamido)phenyl)propanoic acid] |  | +++ (1-10 μM/min/mg as +++) | < 6.92 | < 6.92
11 | CC(C)n1cnc(-c2ccc(C(F)(F)F)cc2)c1-c1nc(C(=O)Nc2ccc(N3CCN(CCO)CC3)cc2)c[nH]1 [Compound 134] |  | ++ (10-100 μM/min/mg as ++) | < 6.92 | < 6.92
12 | CN1CCN(c2ccc(NC(=O)c3c[nH]c(-c4c(-c5ccc(F)cc5)ncn4CC(C)(C)C)n3)cc2)CC1 [Compound 135, 5′-(4-fluorophenyl)-N-(4-(4-methylpiperazin-1-yl)phenyl)-3′-neopentyl-1H,3′H-[2,4′-biimidazole]-4-carboxamide] |  | + (>100 μM/min/mg as +) | < 6.92 | 6.92 to 7.92
13 | CC(C)n1cnc(-c2ccc(Cl)cc2)c1-c1nc(C(=O)Nc2ccc(CCC(=O)O)cc2)c[nH]1 [Compound 137, 3-(4-(5′-(4-chlorophenyl)-3′-isopropyl-1H,3′H-[2,4′-biimidazole]-4-carboxamido)phenyl)propanoic acid] |  | +++ (1-10 μM/min/mg as +++) | < 6.92 | 7.92 to 9.00
14 | CC(C)n1cnc(-c2ccc(C(F)(F)F)cc2)c1-c1nc(C(=O)Nc2ccc(N3CCN(C)CC3)cc2)c[nH]1 [Compound 142, 3′-isopropyl-N-(4-(4-methylpiperazin-1-yl)phenyl)-5′-(4-(trifluoromethyl)phenyl)-1H,3′H-[2,4′-biimidazole]-4-carboxamide] |  | + (>100 μM/min/mg as +) | < 6.92 | < 6.92
15 | O=C(Nc1ccc(N2CCN(CCO)CC2)cc1)c1c[nH]c(-c2c(-c3ccc(F)cc3)ncn2[C@H]2CC[C@H](O)CC2)n1 [Compound 158, 5′-(4-fluorophenyl)-3′-((1r,4r)-4-hydroxycyclohexyl)-N-(4-(4-(2-hydroxyethyl)piperazin-1-yl)phenyl)-1H,3′H-[2,4′-biimidazole]-4-carboxamide] |  | +++ (1-10 μM/min/mg as +++) | 6.92 to 7.92 | 7.92 to 9.00
16 | C[N+]1([O-])CCN(c2ccc(NC(=O)c3c[nH]c(-c4c(-c5ccc(F)cc5)ncn4CC(F)(F)F)n3)cc2)CC1 [Compound 166, 4-(4-(5′-(4-fluorophenyl)-3′-(2,2,2-trifluoroethyl)-1H,3′H-[2,4′-biimidazole]-4-carboxamido)phenyl)-1-methylpiperazine 1-oxide] |  | +++ (1-10 μM/min/mg as +++) | < 6.92 | < 6.92
17 | CN1CCN(c2ccc(NC(=O)c3c[nH]c(-c4c(-c5ccc(F)cc5)ncn4[C@H]4CC[C@@H](O)CC4)n3)cc2)CC1 [Compound 172] |  |  |  | 6.92 to 7.92
18 | CN1CCN(c2ccc(NC(=O)c3c[nH]c(-c4ncn(C(F)F)c4-c4ccc(F)cc4)n3)cc2)CC1 [Compound 175] |  |  |  | 7.92 to 9.00
19 | CC(C)n1cnc(-c2ccc(F)cc2)c1-c1nc(C(=O)Nc2ccc(N3CCNCC3)cc2)c[nH]1 [Compound 181, 5′-(4-fluorophenyl)-3′-isopropyl-N-(4-(piperazin-1-yl)phenyl)-1H,3′H-[2,4′-biimidazole]-4-carboxamide] |  | ++ (10-100 μM/min/mg as ++) | 6.92 to 7.92 | 6.92 to 7.92
20 | CC(C)n1cnc(-c2ccc(F)cc2)c1-c1nc(C(=O)Nc2ccc(N3CCN(C)C(=O)C3)cc2)c[nH]1 [Compound 185, 5′-(4-fluorophenyl)-3′-isopropyl-N-(4-(4-methyl-3-oxopiperazin-1-yl)phenyl)-1H,3′H-[2,4′-biimidazole]-4-carboxamide] | 9.00 to 10.00 |  | 6.92 to 7.92 | 6.92 to 7.92
21 | CC(C)n1cnc(-c2ccc(F)cc2)c1-c1nc(C(=O)Nc2ccc(N3C[C@H]4CC[C@@H](C3)N4C)cc2)c[nH]1 [Compound 186, 5′-(4-fluorophenyl)-3′-isopropyl-N-(4-((1R,5S)-8-methyl-3,8-diazabicyclo[3.2.1]octan-3-yl)phenyl)-1H,3′H-[2,4′-biimidazole]-4-carboxamide] |  |  | 7.92 to 9.00 | 7.92 to 9.00
22 | CC(=O)N1CCN(c2ccc(NC(=O)c3c[nH]c(-c4c(-c5ccc(F)cc5)ncn4C(C)C)n3)cc2)CC1 [Compound 188, N-(4-(4-acetylpiperazin-1-yl)phenyl)-5′-(4-fluorophenyl)-3′-isopropyl-1H,3′H-[2,4′-biimidazole]-4-carboxamide] | 9.00 to 10.00 |  | 6.92 to 7.92 | 7.92 to 9.00
23 | CC(C)n1cnc(-c2ccc(F)cc2)c1-c1nc(C(=O)Nc2ccc(N3CCN(CC(F)(F)F)CC3)cc2)c[nH]1 [Compound 189, 5′-(4-fluorophenyl)-3′-isopropyl-N-(4-(4-(2,2,2-trifluoroethyl)piperazin-1-yl)phenyl)-1H,3′H-[2,4′-biimidazole]-4-carboxamide] | 9.00 to 10.00 |  | 6.92 to 7.92 | 6.92 to 7.92
24 | CC1CN(c2ccc(NC(=O)c3c[nH]c(-c4c(-c5ccc(F)cc5)ncn4CC(F)(F)F)n3)cc2)CC(C)N1C (stereo not shown) [Compound 190, 5′-(4-fluorophenyl)-3′-(2,2,2-trifluoroethyl)-N-(4-(3,4,5-trimethylpiperazin-1-yl)phenyl)-1H,3′H-[2,4′-biimidazole]-4-carboxamide] | > 10.00 |  | 6.92 to 7.92 | 7.92 to 9.00
25 | CC(=O)N1CCN(c2ccc(NC(=O)c3c[nH]c(-c4c(-c5ccc(F)cc5)ncn4CC(F)(F)F)n3)cc2)CC1 [Compound 191, N-(4-(4-acetylpiperazin-1-yl)phenyl)-5′-(4-fluorophenyl)-3′-(2,2,2-trifluoroethyl)-1H,3′H-[2,4′-biimidazole]-4-carboxamide] | 9.00 to 10.00 |  | 6.92 to 7.92 | 6.92 to 7.92
26 | O=C(Nc1ccc(N2CCN(CC(F)(F)F)CC2)cc1)c1c[nH]c(-c2c(-c3ccc(F)cc3)ncn2CC(F)(F)F)n1 [Compound 192, 5′-(4-fluorophenyl)-3′-(2,2,2-trifluoroethyl)-N-(4-(4-(2,2,2-trifluoroethyl)piperazin-1-yl)phenyl)-1H,3′H-[2,4′-biimidazole]-4-carboxamide] | > 10.00 |  | < 6.92 | 6.92 to 7.92
27 | CN1[C@@H]2CC[C@H]1CN(c1ccc(NC(=O)c3c[nH]c(-c4c(-c5ccc(F)cc5)ncn4CC(F)(F)F)n3)cc1)C2 [Compound 193, 5′-(4-fluorophenyl)-N-(4-((1R,5S)-8-methyl-3,8-diazabicyclo[3.2.1]octan-3-yl)phenyl)-3′-(2,2,2-trifluoroethyl)-1H,3′H-[2,4′-biimidazole]-4-carboxamide] | > 10.00 |  | 6.92 to 7.92 | 6.92 to 7.92
28 | CN1CCN(c2ccc(NC(=O)c3c[nH]c(-c4c(-c5ccc(F)cc5)ncn4CC(F)(F)F)n3)cc2)CC1=O [Compound 194, 5′-(4-fluorophenyl)-N-(4-(4-methyl-3-oxopiperazin-1-yl)phenyl)-3′-(2,2,2-trifluoroethyl)-1H,3′H-[2,4′-biimidazole]-4-carboxamide] | 9.00 to 10.00 |  | < 6.92 | 6.92 to 7.92
